Assay results: PubChem BioAssay AID179 (DTP/NCI, 2004)
Activity calls are given as the source filed them.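 How the source made its calls: active means compounds giving half or more protection of infected cells from virus-caused growth loss, again on retest; inactive means the rest.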

Tested on: CEM cells HIV-1 protection, formazan growth assay
Experiment: NCI AIDS Antiviral Assay
Conditions: for IC50: measured here: growth of uninfected CEM cells
Summary of the method: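 Human CEM cells, uninfected and HIV-1-infected, received five drug concentrations, and growth was read by soluble formazan assay. Compounds giving at least 50% protection were retested; reproducible 100% protection defined confirmed active.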

Row | Compound | EC50 [µM] | IC50 [µM] | outcome
1 | COC(=O)C(=O)C(C(=O)C(=O)Nc1ccc(OC)cc1[N+](=O)[O-])c1nc2ccc([N+](=O)[O-])cc2[nH]c1=O (stereo not drawn) | > 182 | 170 | –
2 | COC(=O)C(C)(N=Cc1ccccc1)c1ccccc1 (stereo not drawn) | > 200 | > 200 | –
3 | O=C1N[C@@H](O)[C@@H]2ON=C(c3ccccc3)[C@H]12 | > 1150 | > 1150 | –
4 | O=C(/C=C/c1ccc(O)cc1)c1ccc2c(c1)OCO2 | > 200 | 33.1 | –
5 | N=c1sc(N2CCOCC2)nn1CC(=O)c1ccccc1 | > 200 | 129 | –
6 | CCCCCCCCCCCCCCCCNc1nc(=O)n(C2CC(N=[N+]=[N-])C(CO)O2)cc1C (stereo not drawn) | > 200 | 9.33 | –
7 | COC(=O)c1nc(=S)[nH]c(C(=O)OC)c1C(=O)/C=C/c1ccccc1 | > 191 | 120 | –
8 | Cc1cc(C(C)(C)C)oc(=O)c1NC(=O)c1ccccc1 | > 200 | 155 | –
9 | NC(CC(O)(c1ccccc1)c1ccccc1)c1ccccc1S (stereo not drawn) | > 200 | – | –
10 | Nc1nc2c(ncn2Cc2ccccc2CCO)c(=O)[nH]1 | > 47.9 | > 47.9 | –
11 | COc1cc(N(C)C)c(OC)cc1/C=C1\Cc2ccccc2C1=O | > 57.5 | 46.8 | –
12 | O=c1c(CCO)c(C2CC2)n2n1CCCC2 | > 1120 | > 200 | –
13 | Cc1cc2[n-]c1/C=c1\[n-]/c(c(CCC(=O)O)c1C)=C\c1[n-]c(c(C)c1CCC(=O)O)/C=c1/cc(C)/c([n-]1)=C/2.[Co] | > 24 | > 24 | –
14 | Cc1c(-c2cnccn2)ssc1=S | > 200 | 102 | –
15 | N#Cc1ccccc1NC(=O)C(=O)C(C(=O)c1ccccc1F)C1OC(=O)c2ccccc21 (stereo not drawn) | > 112 | 16.2 | –
16 | CCN=C(N)SCCS(=O)(=O)O | > 200 | > 200 | –
17 | O=C(O)CN1CCSc2ccccc2CN(CC(=O)O)CCSc2ccccc2C1 | > 562 | > 562 | –
18 | CCOC(=O)/C(=C/c1ccc([N+](=O)[O-])cc1)C(=O)c1ccccc1 | > 22.4 | 13.5 | –
19 | CC([C@H]1CCC2C3CCC4CC5(CC[C@]4(C)C3CC[C@@]21C)c1ccccc1C(=O)N5C)N(C)C (stereo partly drawn) | > 8.13 | > 8.13 | –
20 | O=[N+]([O-])c1ccc(O)c(C=NCC2CCCN3CCCCC23)c1 (stereo not drawn) | > 200 | 39.8 | –
21 | COC(=O)CNC(=O)CSc1nnc(COc2ccc(Cl)cc2)n1-c1ccccc1 | > 200 | 60.3 | –

Row | Compound | EC50 [µM] | IC50 [µM] | outcome
22 | CCCCCC(/C=N/NC(N)=S)C(O)(C(F)(F)F)C(F)(F)F (stereo not drawn) | > 200 | 30.2 | –
23 | CCc1ccccc1NC(=O)C1=C(C)NC(C)=C(C(=O)Nc2c(CC)cccc2CC)C1c1ccc2c(c1)OCO2 (stereo not drawn) | > 33.9 | > 33.9 | –
24 | O=C(C[n+]1ccc2ccccc2c1)c1ccc(O)c(O)c1 | – | – | inactive
25 | COc1ccc(/C=N/NC(=O)CSc2nc(-c3ccccc3)c(-c3ccccc3)[nH]2)cc1OC | > 55 | 31.6 | –
26 | CN1COc2c(n(C)c(=O)[nH]c2=O)C1 | > 200 | 120 | –
27 | CCC1=C(c2ccc(OC)cc2)CCC2(CCNC2)C1C (stereo not drawn) | > 513 | 10.5 | –
28 | C=CC(C)(C)C1Oc2cc(O)ccc2C(=O)C1c1ccc(OC)c(OC)c1O (stereo not drawn) | > 200 | 3.09 | –
29 | Cn1nc(-c2ccccc2)c(C(=O)/C=C/c2ccc(Cl)cc2)c(N2CCCCC2)c1=O | > 17.8 | > 17.8 | –
30 | CCOC(=O)Nn1c(CC#N)nnc1Cc1ccccc1 | > 200 | > 200 | –
31 | COc1cc(/C=C/C(=O)c2cc(Cl)cc(Cl)c2O)cc(OC)c1OC | > 200 | 2.04 | –
32 | C=CCC12CC(O)C(O)CC1(O)OC(c1cc(OC)c(OC)c(OC)c1)C2C (stereo not drawn) | > 200 | > 200 | –
33 | COP(=O)(OC)/C(C#N)=C/c1ccoc1 | > 1100 | > 1100 | –
34 | CCOS(=O)(=O)c1ccc(-c2c3nc(c(-c4ccc(S(=O)(=O)OCC)cc4)c4ccc([nH]4)c(-c4ccc(S(=O)(=O)OCC)cc4)c4nc(c(-c5ccc(S(=O)(=O)OCC)cc5)c5ccc2[nH]5)C=C4)C=C3)cc1 | > 100 | > 100 | –
35 | O=C1c2ccccc2C2(O)Nc3c(ccc4ccccc34)C12O (stereo not drawn) | > 832 | 45.7 | –
36 | COC(=O)c1nc2c(C)c(O)c(O)c([C@H](C)CCC=C(C)C)c2o1 | > 200 | 13.5 | –
37 | COc1ccc2c(c1)C1C(CO2)C(c2ccccc2)=NN1c1ccccc1 (stereo not drawn) | > 20.4 | > 20.4 | –
38 | O=C1CCC2=C(CCC2)N1CCc1ccc2c(c1)OCO2 | – | – | inactive
39 | CCOC(=O)CN(c1sc(C)c(-c2ccccc2)c1C(=O)OCC)S(=O)(=O)c1ccc(C)cc1 | > 200 | 5.13 | –
40 | COC1CC(OC2C(C)OC(OC3C(C)OC(OC4C(C)OC(O[C@H]5CC[C@@]6(C)C(=CC[C@]7(O)[C@@H]6C[C@@H](O)[C@@]6(C)[C@]7(O)CC[C@@]6(O)C(C)=O)C5)CC4OC)CC3OC)CC2OC)OC(C)C1O (stereo partly drawn) | > 200 | > 200 | –
41 | CC1NCCc2c1[nH]c1cc(O)ccc21 (stereo not drawn) | > 1050 | 158 | –
42 | CC1(C)OC(=O)C(=Cc2ccccc2Br)C(=O)O1 | > 417 | 1.29 | –

Row | Compound | EC50 [µM] | IC50 [µM] | outcome
43 | Cc1nc(N/N=C/c2ccccc2Cl)[nH]c(=O)c1CCO | > 100 | > 100 | –
44 | COC(=O)C1=C(C(=O)OC)N(c2ccc(OC)cc2[N+](=O)[O-])C(c2ccc(C)cc2)=CC1c1ccc(OC)cc1OC (stereo not drawn) | > 100 | 3.02 | –
45 | C=CCNC(=S)NNC(=O)c1c(C)nc2sccn12 | > 851 | 813 | –
46 | COC(CCC[N+](C)(C)C)CC[N+](C)(C)C (stereo not drawn) | > 100 | > 100 | –
47 | C=CC1C(=C)CCC2C1CCC1C(C)(C(=O)O)CCCC21C (stereo not drawn) | – | – | inactive
48 | O=C(NC(=O)c1cn(CCN2CCN(C(=O)NCCCCCCNC(=O)N3CCN(CCn4cc(C(=O)NC(=O)OCc5ccccc5)c(=O)[nH]c4=O)CC3)CC2)c(=O)[nH]c1=O)OCc1ccccc1 | – | – | inactive
49 | Cn1nc(-c2ccccc2)c(C(=O)/C=C/c2ccccc2)c(N2CCOCC2)c1=O | > 79.4 | > 79.4 | –
50 | O=C(Nc1ccc(NC(=O)Nc2cc(C(=O)Nc3ccc(C4=NCCN4)cc3)ccc2C(=O)Nc2ccc(C3=NCCN3)cc2)cc1)Nc1cc(C(=O)Nc2ccc(C3=NCCN3)cc2)ccc1C(=O)Nc1ccc(C2=NCCN2)cc1 | 31.6 | > 100 | –
51 | CCOC(=O)CN1C(=O)c2cc([N+](=O)[O-])cc3cc([N+](=O)[O-])cc(c23)C1=O | – | – | inactive
52 | CCCCCc1c2nc(c(CCCCC)c3ccc([nH]3)c(CCCCC)c3ccc([nH]3)c(CCCCC)c3nc1C=C3)C=C2 | > 200 | > 200 | –
53 | CCOC(=O)/C=C/CCO[Si](C)(C)C(C)(C)C | > 200 | > 200 | –
54 | Cc1cc2c(C)nn(Cc3ccccc3)c2c(C(=O)O)c1C | > 123 | > 123 | –
55 | Cc1ncc([N+](=O)[O-])n1CCn1ccnc1[N+](=O)[O-] | > 200 | > 200 | –
56 | CN(C)C1(C#N)CCC2(CC1)OCCO2 | – | – | inactive
57 | N=C(N)N | > 1000 | > 1000 | –
58 | CCCCNC(=O)OCCN=C1c2ccccc2C(Br)C(Br)c2ccccc21 (stereo not drawn) | > 200 | 26.9 | –
59 | CCCCCCc1cc2c(C)c(C)c(=O)oc2cc1OCCCOc1cc2oc(=O)c(C)c(C)c2cc1CCCCCC | > 22.9 | > 22.9 | –
60 | O=C(O)CCC(=O)NCCNC(=O)CC(=O)O | > 1000 | > 1000 | –
61 | C/C(CC(=O)Nc1ccccc1C)=N/NS(=O)(=O)c1ccc(C)cc1 | > 363 | > 363 | –
62 | CC(=O)c1ccc(N2C(=O)C3c4[nH]c5ccccc5c4C4CCC(C(C)(C)C)CC4C3C2=O)cc1 (stereo not drawn) | > 11.2 | > 11.2 | –
63 | CCCN(CCC)CCc1cc(C(C)=O)n(S(=O)(=O)c2ccc(C)cc2)c1 | > 589 | 263 | –

Row | Compound | EC50 [µM] | IC50 [µM] | outcome
64 | COc1cccc(C2SC(N)=Nc3c2c(C)nn3C(=O)c2ccccc2O)c1 (stereo not drawn) | > 2 | 0.17 | –
65 | CCOC(=O)N[C@@H]1C(CC(=O)OC)O[C@H]2OC(C)(C)O[C@H]21 (stereo partly drawn) | > 832 | > 832 | –
66 | CCOC1NC(/N=C/c2ccc(OC)cc2)=C(C#N)C1C#N (stereo not drawn) | > 200 | 24.5 | –
67 | CNC(=O)CN(CC(N)=O)C(N)=O | > 191 | > 191 | –
68 | CCN(CC)CCCNc1ncnc2c1C(c1ccccc1)c1ccccc1-2 (stereo not drawn) | > 676 | 33.1 | –
69 | Cc1ccc(/C=N/NS(=O)(=O)c2ccccc2)c(C)c1 | – | – | inactive
70 | COC(=O)/C(=N\NC(N)=O)C(C#N)c1ccccc1 (stereo not drawn) | > 692 | > 692 | –
71 | COc1ccc(-n2[nH]nc(C(N)=O)c2=O)cc1 | > 200 | > 200 | –
72 | CN/N=C(/c1nc2ccc([N+](=O)[O-])cc2[nH]c1=O)C(O)c1ccc(C(O)/C(=N\NC)c2nc3ccc([N+](=O)[O-])cc3[nH]c2=O)cc1 (stereo not drawn) | > 107 | 77.6 | –
73 | COC(=O)CC(C(C(=O)OCc1ccccc1)C(C)O)N1C(=O)OC(c2ccccc2)C1c1ccccc1 (stereo not drawn) | > 251 | > 251 | –
74 | CC1=C(C(=O)N[C@@H](Cc2ccccc2)C(=O)O)N2C(=O)[C@@H](NC(=O)[C@@H](N)CC(C)C)[C@H]2SC1 | 174 | > 200 | –
75 | O=c1c(O)c(-c2ccccc2)oc2c(CP(=O)(O)O)cccc12 | > 200 | 162 | –
76 | C=C(C)C1CCC2=CC(CC3(C)OC3C3=CC(C(=O)OC)=C(C1)O3)OC2=O (stereo not drawn) | > 47.9 | > 47.9 | –
77 | CC(C)(C)OC(=O)N/N=C(/N)c1ccccc1 | > 200 | > 200 | –
78 | C/C(=N/NC(=S)NCCc1ccccn1)c1cnccn1 | > 200 | 8.71 | –
79 | COC(=O)c1nn(C(=N)c2ccc(Cl)cc2)c2c1CCCCC2 | > 380 | > 380 | –
80 | O=C1N(c2ccccc2)C(=O)C2(SC=NN2Cc2ccccc2)N1c1ccccc1 (stereo not drawn) | – | – | inactive
81 | CSc1nc2nc(C)c(C)nc2c(=O)[nH]1 | > 1120 | > 1120 | –
82 | COC(=O)CCc1ccc(CCC(=O)OC)cc1 | > 200 | > 200 | –
83 | Cc1ccc2c(c1)C(=S)N1CSCC1c1nncn1-2 (stereo not drawn) | > 200 | > 200 | –
84 | Cn1cccc1/C=N/N=C(/N)NO | – | – | inactive
